What follows are molecules tested on bovine cardiac myofibrils (assay: Myofibril assay: PK/LDH-coupled steady-state ATPase activity of skinned bovine cardiac myofibrils). Conditions: Ca2+ activating to 75% of maximal rate.
Assay type: biochemical
Method in brief: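 Steady-state ATPase of detergent-skinned bovine left-ventricular myofibrils (1 mg/mL), PK/LDH-coupled NADH read at 340 nm, in PIPES/MgCl2 buffer pH 6.8 with 50 μM ATP, 0.6 mM EGTA and CaCl2 set for 50% or 75% activation. Inhibition of activity measured.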

SMILES	CDMF75 IC15 [µM]
CC(=O)N1CC2(C1)C(=O)N(c1ncc(Br)cc1F)CC(=O)N2[C@@H](C)c1ccc(C(F)(F)F)cc1 [Compound 571, (S)-2-acetyl-8-(5-bromo-3-fluoropyridin-2-yl)-5-(1-(4-(trifluoromethyl)phenyl)-ethyl)-2,5,8-triazaspiro-[3.5]nonane-6,9-dione]	2.0
O=C1CN(c2ncc(Cl)cc2F)C(=O)C2(COC2)N1Cc1ccc(Cl)cc1 [Compound 575, 8-(5-chloro-3-fluoropyridin-2-yl)-5-(4-chlorobenzyl)-2-oxa-5,8-diazaspiro[3.5]nonane-6,9-dione]	1.5
CC1(C)C(=O)N(c2ncc(Cl)cc2F)CC(=O)N1Cc1ccc(Cl)cc1 [Compound 576, 1-(5-chloro-3-fluoropyridin-2-yl)-4-(4-chlorobenzyl)-3,3-dimethylpiperazine-2,5-dione]	2.2
O=C1CN(c2ncc(Cl)cc2F)C(=O)C2(CC2)N1Cc1ccc(Cl)cc1 [Compound 577, 7-(5-chloro-3-fluoropyridin-2-yl)-4-(4-chlorobenzyl)-4,7-diazaspiro[2.5]octane-5,8-dione]	0.9
CNC(=O)N1CC2(C1)C(=O)N(c1ncc(Cl)cc1F)CC(=O)N2[C@@H](C)c1ccc(C(F)(F)F)cc1 [Compound 592, (S)-8-(5-chloro-3-fluoro-pyridin-2-yl)-N-methyl-6,9-dioxo-5-(1-(4-(trifluoromethyl)phenyl)-ethyl)-2,5,8-triazaspiro-[3.5]nonane-2-carboxamide]	1.3
C[C@@H](c1ccc(C(F)(F)F)cc1)N1C(=O)CN(c2ncc(Cl)cc2F)C(=O)C12CN(CC(F)F)C2 [Compound 593, (S)-8-(5-chloro-3-fluoro-pyridin-2-yl)-2-(2,2-difluoroethyl)-5-(l-(4-(trifluoromethyl)phenyl)-ethyl)-2,5,8-triazaspiro-[3.5]nonane-6,9-dione]	2.3
C[C@H](c1ccc(Cl)cc1)N1C(=O)CN(c2ncc(Cl)cc2F)C(=O)C12CC2 [Compound 616, (R)-7-(5-chloro-3-fluoro-pyridin-2-yl)-4-(1-(4-chlorophenyl)ethyl)-4,7-diazaspiro[2.5]octane-5,8-dione]	11.85
C[C@@H](c1ccc(C(F)(F)F)cc1)N1C(=O)CN(c2ncc(Cl)cc2F)C(=O)C12CN(C=O)C2 [Compound 620, (S)-8-(5-chloro-3-fluoro-pyridin-2-yl)-6,9-dioxo-5-(1-(4-(trifluoromethyl)-phenyl)ethyl)-2,5,8-triazaspiro[3.5]nonane-2-carbaldehyde]	1.8
CC1(C2C(=O)N(c3ncc(Cl)cc3F)CC(=O)N2Cc2ccc(Cl)cc2)COC1 (centres unmarked) [Compound 624, 1-(5-chloro-3-fluoropyridin-2-yl)-4-(4-chlorobenzyl)-3-(3-methyloxetan-3-yl)-piperazine-2,5-dione]	2.0
CC1(C(F)F)C(=O)N(c2ncc(Cl)cc2F)CC(=O)N1Cc1ccc(Cl)cc1 (centres unmarked) [Compound 636, 1-(5-chloro-3-fluoropyridin-2-yl)-4-(4-chlorobenzyl)-3-(difluoromethyl)-3-methylpiperazine-2,5-dione]	1.3

Further lines, results first:

CDMF75 IC15 [µM]	SMILES
7.4	CC(=O)N1CCC2(CC1)C(=O)N(c1ncc(Cl)cc1F)CC(=O)N2Cc1ccc(C(F)(F)F)cc1 [Compound 572, 9-acetyl-4-(5-chloro-3-fluoropyridin-2-yl)-1-(4-(trifluoromethyl)benzyl)-1,4,9-triazaspiro[5.5]-undecane-2,5-dione]
6.5	CC1(CO)C(=O)N(c2ncc(Cl)cc2F)CC(=O)N1Cc1ccc(C(F)(F)F)cc1 (centres unmarked) [Compound 573, 1-(5-chloro-3-fluoropyridin-2-yl)-3-(hydroxymethyl)-3-methyl-4-(4-(trifluoro-methyl)benzyl)piperazine-2,5-dione]
0.3	O=C1CN(c2ncc(Cl)cc2F)C(=O)C2(CC(F)C2)N1Cc1ccc(C(F)(F)F)cc1 (centres unmarked) [Compound 574, 8-(5-chloro-3-fluoropyridin-2-yl)-2-fluoro-5-(4-(trifluoromethyl)benzyl)-5,8-diazaspiro[3.5]nonane-6,9-dione]
1.7	CSCCC1C(=O)N(c2ncc(Cl)cc2F)CC(=O)N1Cc1ccc(C(F)(F)F)cc1 (centres unmarked) [Compound 610, 1-(5-chloro-3-fluoropyridin-2-yl)-3-(2-(methylthio)-ethyl)-4-(4-(trifluoro-methyl)-benzyl)piperazine-2,5-dione]
13.6	CS(=O)(=O)CCC1C(=O)N(c2ncc(Cl)cc2F)CC(=O)N1Cc1ccc(C(F)(F)F)cc1 (centres unmarked) [Compound 612, 1-(5-chloro-3-fluoropyridin-2-yl)-3-(2-(methylsulfonyl)-ethyl)-4-(4-(trifluoro-methyl)benzyl)piperazine-2,5-dione]
1.3	COC(=O)N1CC2(C1)C(=O)N(c1ncc(Cl)cc1F)CC(=O)N2[C@@H](C)c1ccc(C(F)(F)F)cc1 [Compound 615, methyl (S)-8-(5-chloro-3-fluoropyridin-2-yl)-6,9-dioxo-5-(1-(4-(trifluoro-methyl)phenyl)ethyl)-2,5,8-triazaspiro[3.5]-nonane-2-carboxylate]
3.0	CC1(C2C(=O)N(c3ncc(Cl)cc3F)CC(=O)N2Cc2ccc(C(F)(F)F)cc2)COC1 (centres unmarked) [Compound 623, 1-(5-chloro-3-fluoropyridin-2-yl)-3-(3-methyloxetan-3-yl)-4-(4-(trifluoro-methyl)-benzyl)piperazine-2,5-dione]
14.5	CC(=O)NC[C@H]1C(=O)N(c2ncc(Cl)cc2F)CC(=O)N1Cc1ccc(C(F)(F)F)cc1 [Compound 625, (S)-N-((4-(5-chloro-3-fluoropyridin-2-yl)-3,6-dioxo-1-(4-(trifluoro-methyl)benzyl)piperazin-2-yl)methyl)acetamide]
>39	CC(=O)NC[C@@H]1C(=O)N(c2ncc(Cl)cc2F)CC(=O)N1Cc1ccc(C(F)(F)F)cc1 [Compound 626, (R)-N-((4-(5-chloro-3-fluoropyridin-2-yl)-3,6-dioxo-1-(4-(trifluoro-methyl)benzyl)piperazin-2-yl)methyl)acetamide]
32.4	CC(=O)NCC1C(=O)N(c2ncc(Cl)cc2F)CC(=O)N1Cc1ccc(C(F)(F)F)cc1 (centres unmarked) [Compound 629, N-((4-(5-chloro-3-fluoro-pyridin-2-yl)-3,6-dioxo-1-(4-(trifluoromethyl)-benzyl)piperazin-2-yl)-methyl)acetamide]
17.3	CC(=O)NCC1(C)C(=O)N(c2ncc(Cl)cc2F)CC(=O)N1Cc1ccc(Cl)cc1 (centres unmarked) [Compound 631, N-((4-(5-chloro-3-fluoro-pyridin-2-yl)-1-(4-chloro-benzyl)-2-methyl-3,6-dioxopiperazin-2-yl)-methyl)acetamide]
31.7	CC(=O)NCC1C(=O)N(c2ncc(Cl)cc2F)CC(=O)N1Cc1ccc(Cl)cc1 (centres unmarked) [Compound 632, N-((4-(5-chloro-3-fluoro-pyridin-2-yl)-1-(4-chloro-benzyl)-3,6-dioxopiperazin-2-yl)methyl)acetamide]
1.3	O=C1C(C2COC2)N(Cc2ccc(Cl)cc2)C(=O)CN1c1ncc(Cl)cc1F (centres unmarked) [Compound 633, 1-(5-chloro-3-fluoropyridin-2-yl)-4-(4-chlorobenzyl)-3-(oxetan-3-yl)piperazine-2,5-dione]
